Patent US10064871B2, “Methods of treating skin disorders” (Biomimetix JV, LLC, priority 2014, dated 2018)

Assays:
plaque-forming psoriasis = experiment: Topical treatment of plaque-forming psoriasis on the legs of one subject; assay type: in vivo, human
Description: The therapeutic efficacy of MnTnBuOE-2-PyP^5+ when topically delivered was evaluated in a person with large areas of moderately severe plaque-forming psoriasis on upper and lower portions of both legs, with each involved area being approximately 10-20 cm in diameter. MnTnBuOE-2-PyP^5+ was formulated in LIPODERM® topical compounding cream base (available from the Professional Compounding Centers of America (PCCA)). at 0.01% and 0.1% concentrations producing a light brown cream which was applied b.i.d. to lesions on one extremity.

[1] = tested on: psoriatic involvement of the scalp; experiment: Topical treatment of psoriatic involvement of the scalp of one subject; assay type: in vivo, human
Text: A second subject with psoriatic involvement of the scalp of moderate severity was topically treated with MnTnBuOE-2-PyP^5+0.1% in LIPODERM® cream base twice daily for 3 weeks.

[2] = 0.01% and 0.1% in LIPODERM cream base, topical b.i.d., within 5 days

Manganese ortho tetrakis(N-n-butoxyethylpyridinium-2-yl)porphyrin [MnTnBuOE-2-PyP^5+]
time to marked improvement (plaque-forming psoriasis; 0.01% and 0.1% in LIPODERM cream base, topical b.i.d.): ≤ 5 days
area of remaining mild psoriatic reaction (plaque-forming psoriasis; [2]): decrease in the area of remaining mild psoriatic reaction
clinical irritation (plaque-forming psoriasis; [2]): marked decrease in clinical irritation
inflammation of lesions (plaque-forming psoriasis; [2]): decreased inflammation
efficacy of 0.01% compared with 0.1% cream (plaque-forming psoriasis; lesions treated with 0.01% and 0.1% in LIPODERM cream base): Equivalent efficacy
clinical improvement of psoriatic lesions (plaque-forming psoriasis; person, moderately severe plaque psoriasis of legs, 0.01% and 0.1% in LIPODERM cream base, topical b.i.d.): Marked improvement
return of the psoriatic reaction ([1]; 30 days after treatment stopped, 0.1% in LIPODERM cream base twice daily for 3 weeks): No return of the psoriatic reaction was observed
psoriatic scalp reaction after treatment ([1]; person, moderate severity, 0.1% in LIPODERM cream base, topical twice daily for 3 weeks): Complete resolution
